Experimental data reported in BindingDB's records for doi:10.1021/jm061152t (Abbott Laboratories, 2007).
Where “and” joins values, the source holds several entries; their conditions need not be identical. Equal values may be shown once.

Test: The binding affinities (Ki) of compounds were determined using fluorescence polarization assays (FPA) that measure their ability to competitively displace a Bad-derived peptide from Bcl-xL. Compound efficacy (EC50) in a cellular context was evaluated by testing their ability to reverse the protection from cytokine w
Conditions: not given

Structure (SMILES)	EC50
CN(C)CC[C@H](CSc1ccccc1)Nc1ccc(S(=O)(=O)NC(=O)c2ccc(N3CCN(C(=O)c4ccccc4)CC3)cc2)cc1[N+](=O)[O-] [4-(4-benzoylpiperazin-1-yl)-N-[(4-{[(2R)-4-(dimethylamino)-1-(phenylsulfanyl)butan-2-yl]amino}-3-nitrobenzene)sulfonyl]benzamide]	> 50000 nM
CN(C)CC[C@H](CSc1ccccc1)Nc1ccc(S(=O)(=O)NC(=O)c2ccc(N3CCN(Cc4ccccc4)CC3)cc2)cc1[N+](=O)[O-] [4-(4-benzylpiperazin-1-yl)-N-[(4-{[(2R)-4-(dimethylamino)-1-(phenylsulfanyl)butan-2-yl]amino}-3-nitrobenzene)sulfonyl]benzamide]	1700 nM
CN(C)CC[C@H](CSc1ccccc1)Nc1ccc(S(=O)(=O)NC(=O)c2ccc(N3CCN(Cc4ccccc4-c4ccccc4Cl)CC3)cc2)cc1[N+](=O)[O-] [4-(4-{[2-(2-chlorophenyl)phenyl]methyl}piperazin-1-yl)-N-[(4-{[(2R)-4-(dimethylamino)-1-(phenylsulfanyl)butan-2-yl]amino}-3-nitrobenzene)sulfonyl]benzamide]	56 nM and 27 nM
CN(C)CC[C@H](CSc1ccccc1)Nc1ccc(S(=O)(=O)NC(=O)c2ccc(N3CCN(Cc4ccccc4-c4cccc(Cl)c4)CC3)cc2)cc1[N+](=O)[O-] [4-(4-{[2-(3-chlorophenyl)phenyl]methyl}piperazin-1-yl)-N-[(4-{[(2R)-4-(dimethylamino)-1-(phenylsulfanyl)butan-2-yl]amino}-3-nitrobenzene)sulfonyl]benzamide]	180 nM and 33 nM
CN(C)CC[C@H](CSc1ccccc1)Nc1ccc(S(=O)(=O)NC(=O)c2ccc(N3CCN(Cc4ccccc4NC4CCCCC4)CC3)cc2)cc1[N+](=O)[O-] [4-(4-{[2-(cyclohexylamino)phenyl]methyl}piperazin-1-yl)-N-[(4-{[(2R)-4-(dimethylamino)-1-(phenylsulfanyl)butan-2-yl]amino}-3-nitrobenzene)sulfonyl]benzamide]	660 nM and 340 nM
CN(C)CC[C@H](CSc1ccccc1)Nc1ccc(S(=O)(=O)NC(=O)c2ccc(N3CCN(C(=O)Nc4ccccc4)CC3)cc2)cc1[N+](=O)[O-] [4-(4-{[(4-{[(2R)-4-(dimethylamino)-1-(phenylsulfanyl)butan-2-yl]amino}-3-nitrobenzene)sulfonyl]carbamoyl}phenyl)-N-phenylpiperazine-1-carboxamide]	> 50000 nM
CN(C)CC[C@H](CSc1ccccc1)Nc1ccc(S(=O)(=O)NC(=O)c2ccc(N3CCN(Cc4ccccc4C4CCCCC4)CC3)cc2)cc1[N+](=O)[O-] [4-{4-[(2-cyclohexylphenyl)methyl]piperazin-1-yl}-N-[(4-{[(2R)-4-(dimethylamino)-1-(phenylsulfanyl)butan-2-yl]amino}-3-nitrobenzene)sulfonyl]benzamide]	340 nM and 120 nM
CC1OC2(CCN(c3ccc(C(=O)NS(=O)(=O)c4ccc(N[C@H](CCN(C)C)CSc5ccccc5)c([N+](=O)[O-])c4)cc3)CC2)N(Cc2ccccc2)C1=O (stereo partly drawn) [4-{4-benzyl-2-methyl-3-oxo-1-oxa-4,8-diazaspiro[4.5]decan-8-yl}-N-[(4-{[(2R)-4-(dimethylamino)-1-(phenylsulfanyl)butan-2-yl]amino}-3-nitrobenzene)sulfonyl]benzamide]	> 50000 nM
CN(C)CC[C@H](CSc1ccccc1)Nc1ccc(S(=O)(=O)NC(=O)c2ccc(N3CCC(C)(C)CC3)cc2)cc1[N+](=O)[O-] [N-[(4-{[(2R)-4-(dimethylamino)-1-(phenylsulfanyl)butan-2-yl]amino}-3-nitrobenzene)sulfonyl]-4-(4,4-dimethylpiperidin-1-yl)benzamide]	2200 nM
COc1cccc(-c2ccccc2CN2CCN(c3ccc(C(=O)NS(=O)(=O)c4ccc(N[C@H](CCN(C)C)CSc5ccccc5)c([N+](=O)[O-])c4)cc3)CC2)c1 [N-[(4-{[(2R)-4-(dimethylamino)-1-(phenylsulfanyl)butan-2-yl]amino}-3-nitrobenzene)sulfonyl]-4-(4-{[2-(3-methoxyphenyl)phenyl]methyl}piperazin-1-yl)benzamide]	380 nM and 460 nM

More lines, now with the values ahead:

EC50	Structure (SMILES)
130 nM and 27 nM	CN(C)CC[C@H](CSc1ccccc1)Nc1ccc(S(=O)(=O)NC(=O)c2ccc(N3CCN(Cc4ccccc4-c4ccc(F)cc4)CC3)cc2)cc1[N+](=O)[O-] [N-[(4-{[(2R)-4-(dimethylamino)-1-(phenylsulfanyl)butan-2-yl]amino}-3-nitrobenzene)sulfonyl]-4-(4-{[2-(4-fluorophenyl)phenyl]methyl}piperazin-1-yl)benzamide]
30 nM and 25 nM	COc1ccc(-c2ccccc2CN2CCN(c3ccc(C(=O)NS(=O)(=O)c4ccc(N[C@H](CCN(C)C)CSc5ccccc5)c([N+](=O)[O-])c4)cc3)CC2)cc1 [N-[(4-{[(2R)-4-(dimethylamino)-1-(phenylsulfanyl)butan-2-yl]amino}-3-nitrobenzene)sulfonyl]-4-(4-{[2-(4-methoxyphenyl)phenyl]methyl}piperazin-1-yl)benzamide]
22 nM and 68 nM	CN(C)CC[C@H](CSc1ccccc1)Nc1ccc(S(=O)(=O)NC(=O)c2ccc(N3CCN(Cc4ccccc4-c4ccc(-c5ccccc5)cc4)CC3)cc2)cc1[N+](=O)[O-] [N-[(4-{[(2R)-4-(dimethylamino)-1-(phenylsulfanyl)butan-2-yl]amino}-3-nitrobenzene)sulfonyl]-4-(4-{[2-(4-phenylphenyl)phenyl]methyl}piperazin-1-yl)benzamide]
95 nM and 130 nM	CSc1ccccc1CN1CCN(c2ccc(C(=O)NS(=O)(=O)c3ccc(N[C@H](CCN(C)C)CSc4ccccc4)c([N+](=O)[O-])c3)cc2)CC1 [N-[(4-{[(2R)-4-(dimethylamino)-1-(phenylsulfanyl)butan-2-yl]amino}-3-nitrobenzene)sulfonyl]-4-(4-{[2-(methylsulfanyl)phenyl]methyl}piperazin-1-yl)benzamide]
430 nM and 460 nM	CN(C)CC[C@H](CSc1ccccc1)Nc1ccc(S(=O)(=O)NC(=O)c2ccc(N3CCN(Cc4ccccc4N4CCOCC4)CC3)cc2)cc1[N+](=O)[O-] [N-[(4-{[(2R)-4-(dimethylamino)-1-(phenylsulfanyl)butan-2-yl]amino}-3-nitrobenzene)sulfonyl]-4-(4-{[2-(morpholin-4-yl)phenyl]methyl}piperazin-1-yl)benzamide]
800 nM and 820 nM	CN(C)CC[C@H](CSc1ccccc1)Nc1ccc(S(=O)(=O)NC(=O)c2ccc(N3CCN(Cc4ccccc4-c4cccnc4)CC3)cc2)cc1[N+](=O)[O-] [N-[(4-{[(2R)-4-(dimethylamino)-1-(phenylsulfanyl)butan-2-yl]amino}-3-nitrobenzene)sulfonyl]-4-(4-{[2-(pyridin-3-yl)phenyl]methyl}piperazin-1-yl)benzamide]
390 nM and 130 nM	CN(C)CC[C@H](CSc1ccccc1)Nc1ccc(S(=O)(=O)NC(=O)c2ccc(N3CCN(Cc4ccccc4C(F)(F)F)CC3)cc2)cc1[N+](=O)[O-] [N-[(4-{[(2R)-4-(dimethylamino)-1-(phenylsulfanyl)butan-2-yl]amino}-3-nitrobenzene)sulfonyl]-4-(4-{[2-(trifluoromethyl)phenyl]methyl}piperazin-1-yl)benzamide]
550 nM and 1380 nM	CN(C)CC[C@H](CSc1ccccc1)Nc1ccc(S(=O)(=O)NC(=O)c2ccc(N3CCC(=Cc4ccccn4)CC3)cc2)cc1[N+](=O)[O-] [N-[(4-{[(2R)-4-(dimethylamino)-1-(phenylsulfanyl)butan-2-yl]amino}-3-nitrobenzene)sulfonyl]-4-[4-(pyridin-2-ylmethylidene)piperidin-1-yl]benzamide]
1900 nM and 5300 nM	CN(C)CC[C@H](CSc1ccccc1)Nc1ccc(S(=O)(=O)NC(=O)c2ccc(N3CCC(=Cc4cccnc4)CC3)cc2)cc1[N+](=O)[O-] [N-[(4-{[(2R)-4-(dimethylamino)-1-(phenylsulfanyl)butan-2-yl]amino}-3-nitrobenzene)sulfonyl]-4-[4-(pyridin-3-ylmethylidene)piperidin-1-yl]benzamide]
40 nM and 13 nM	CN(C)CC[C@H](CSc1ccccc1)Nc1ccc(S(=O)(=O)NC(=O)c2ccc(N3CCN(Cc4ccccc4-c4ccc(C(F)(F)F)cc4)CC3)cc2)cc1[N+](=O)[O-] [N-[(4-{[(2R)-4-(dimethylamino)-1-(phenylsulfanyl)butan-2-yl]amino}-3-nitrobenzene)sulfonyl]-4-[4-({2-[4-(trifluoromethyl)phenyl]phenyl}methyl)piperazin-1-yl]benzamide]
5500 nM and 6800 nM	CN(C)CC[C@H](CSc1ccccc1)Nc1ccc(S(=O)(=O)NC(=O)c2ccc(N3CCN(Cc4ccccc4S(C)(=O)=O)CC3)cc2)cc1[N+](=O)[O-] [N-[(4-{[(2R)-4-(dimethylamino)-1-(phenylsulfanyl)butan-2-yl]amino}-3-nitrobenzene)sulfonyl]-4-{4-[(2-methanesulfonylphenyl)methyl]piperazin-1-yl}benzamide]
390 nM and 950 nM	COc1ccccc1CN1CCN(c2ccc(C(=O)NS(=O)(=O)c3ccc(N[C@H](CCN(C)C)CSc4ccccc4)c([N+](=O)[O-])c3)cc2)CC1 [N-[(4-{[(2R)-4-(dimethylamino)-1-(phenylsulfanyl)butan-2-yl]amino}-3-nitrobenzene)sulfonyl]-4-{4-[(2-methoxyphenyl)methyl]piperazin-1-yl}benzamide]
410 nM and 940 nM	Cc1ccccc1CN1CCN(c2ccc(C(=O)NS(=O)(=O)c3ccc(N[C@H](CCN(C)C)CSc4ccccc4)c([N+](=O)[O-])c3)cc2)CC1 [N-[(4-{[(2R)-4-(dimethylamino)-1-(phenylsulfanyl)butan-2-yl]amino}-3-nitrobenzene)sulfonyl]-4-{4-[(2-methylphenyl)methyl]piperazin-1-yl}benzamide]
18 nM and 16 nM	CN(C)CC[C@H](CSc1ccccc1)Nc1ccc(S(=O)(=O)NC(=O)c2ccc(N3CCN(Cc4ccccc4-c4ccccc4)CC3)cc2)cc1[N+](=O)[O-] [N-[(4-{[(2R)-4-(dimethylamino)-1-(phenylsulfanyl)butan-2-yl]amino}-3-nitrobenzene)sulfonyl]-4-{4-[(2-phenylphenyl)methyl]piperazin-1-yl}benzamide]

Same assay, conditions: pH 7.4

EC50	Structure (SMILES)
14600 nM	CN(C)CC[C@H](CSc1ccccc1)Nc1ccc(S(=O)(=O)NC(=O)c2ccc(N3CCN(C(=O)c4ccccc4)CC3)cc2)cc1[N+](=O)[O-] [4-(4-benzoylpiperazin-1-yl)-N-[(4-{[(2R)-4-(dimethylamino)-1-(phenylsulfanyl)butan-2-yl]amino}-3-nitrobenzene)sulfonyl]benzamide]
1100 nM	CN(C)CC[C@H](CSc1ccccc1)Nc1ccc(S(=O)(=O)NC(=O)c2ccc(N3CCN(Cc4ccccc4)CC3)cc2)cc1[N+](=O)[O-] [4-(4-benzylpiperazin-1-yl)-N-[(4-{[(2R)-4-(dimethylamino)-1-(phenylsulfanyl)butan-2-yl]amino}-3-nitrobenzene)sulfonyl]benzamide]
> 50000 nM	CN(C)CC[C@H](CSc1ccccc1)Nc1ccc(S(=O)(=O)NC(=O)c2ccc(N3CCN(C(=O)Nc4ccccc4)CC3)cc2)cc1[N+](=O)[O-] [4-(4-{[(4-{[(2R)-4-(dimethylamino)-1-(phenylsulfanyl)butan-2-yl]amino}-3-nitrobenzene)sulfonyl]carbamoyl}phenyl)-N-phenylpiperazine-1-carboxamide]
> 20000 nM	CC1OC2(CCN(c3ccc(C(=O)NS(=O)(=O)c4ccc(N[C@H](CCN(C)C)CSc5ccccc5)c([N+](=O)[O-])c4)cc3)CC2)N(Cc2ccccc2)C1=O (stereo partly drawn) [4-{4-benzyl-2-methyl-3-oxo-1-oxa-4,8-diazaspiro[4.5]decan-8-yl}-N-[(4-{[(2R)-4-(dimethylamino)-1-(phenylsulfanyl)butan-2-yl]amino}-3-nitrobenzene)sulfonyl]benzamide]
